Assay results published in US20240254129A1, “HETEROCYCLIC COMPOUNDS AND USES THEREOF” (Kumquat Biosciences Inc., priority 2021, published 2024).
Like-named read-outs stand apart in the source and are kept apart here.

How the values were obtained:
[1] = target: GST-tagged K-Ras mutant / His-tagged hSOS1 (Homo sapiens, UniProt P01116); assay: HTRF assay, K-Ras mutant / SOS1 interaction; type: binding; conditions: read-out: IC50 against mutant Kras
In short: (§1)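 Compounds tested in duplicate from 10 μM down to 0.01 μM, incubated about 10 min or longer with GST-K-Ras/anti-GST-Eu and His-hSOS1/anti-6His-XL665 in ~5 mM HEPES pH 7.4 buffer with ~150 mM NaCl, DTT, BSA and Igepal. IC50 derived from 665/620 nm emission ratio.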

wildtype Kras / hSOS1 = target: T1, wildtype Kras / hSOS1 (Homo sapiens, UniProt P01116); assay: HTRF assay, wildtype Kras / SOS1 interaction; type: binding; conditions: read-out: IC50 against wildtype Kras
T1 construct: made in house; host or cells: E. coli BL21 (DE3)
In short: as §1

[2] = compound nos. 102-196, general methodology of example 5
[3] = compound nos. 201-213, general methodology of example 5

T1 sequence (P01116 1-188 isoform P01116-2): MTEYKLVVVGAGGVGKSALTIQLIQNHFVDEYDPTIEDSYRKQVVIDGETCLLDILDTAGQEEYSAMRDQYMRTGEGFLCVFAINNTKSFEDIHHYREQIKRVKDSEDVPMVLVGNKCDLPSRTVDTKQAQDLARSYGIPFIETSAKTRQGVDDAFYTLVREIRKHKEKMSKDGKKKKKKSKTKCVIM
Sequence of GST-tagged K-Ras mutant / His-tagged hSOS1 (P01116 whole entry G12D, form open): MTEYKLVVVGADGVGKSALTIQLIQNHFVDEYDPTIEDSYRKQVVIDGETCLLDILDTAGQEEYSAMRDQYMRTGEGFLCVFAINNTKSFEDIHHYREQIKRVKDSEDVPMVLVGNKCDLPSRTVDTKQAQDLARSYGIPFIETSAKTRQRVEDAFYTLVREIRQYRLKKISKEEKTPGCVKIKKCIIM

IC50 ([1]; compound nos. 401-703) [nM]	IC50 (wildtype Kras / hSOS1; compound nos. 401-703) [nM]	SMILES	other results
< 500	> 500	CNCCCN1CCCN(c2nc(OCC34CCCN3CCC4)nc3c(F)c(-c4ccc(F)c5sc(N)nc45)c(Cl)cc23)CC1 [Compound 640, 4-(6-chloro-8-fluoro-4-(4-(3-(methylamino)propyl)-1,4-diazepan-1-yl)-2-((tetrahydro-1H-pyrrolizin-7a(5H)-yl)methoxy)quin-azolin-7-yl)-7-fluorobenzo-[d]thiazol-2-amine]	
		Nc1nc2c(-c3c(Cl)cc4c(N5CCNCC(F)C5)nc(OC[C@@]56CCCN5C[C@H](F)C6)nc4c3F)ccc(F)c2s1 (stereo partly drawn) [Compound 164, 4-(6-chloro-8-fluoro-4-(6-fluoro-1,4-diazepan-1-yl)-2-(((2R,7aS)-2-fluorotetra-hydro-1H-pyrrolizin-7a(5H)-yl)methoxy)quinazolin-7-yl)-7-fluorobenzo[d]thiazol-2-amine]	IC50 [1, 2]: < 500 nM; IC50 (wildtype Kras / hSOS1; [2]): < 500 nM
		N#CC1CCCN(c2nc(OCC34CCCN3CCC4)nc3c(F)c(-c4ccc(F)c5sc(N)nc45)c(Cl)cc23)CC1 (stereo not shown) [Compound 172, 1-(7-(2-amino-7-fluoro-benzo[d]thiazol-4-yl)-6-chloro-8-fluoro-2-((tetra-hydro-1H-pyrrolizin-7a(5H)-yl)methoxy)-quinazolin-4-yl)azepane-4-carbonitrile]	IC50 [1, 2]: < 500 nM; IC50 (wildtype Kras / hSOS1; [2]): < 500 nM
< 500	> 500	Nc1nc2c(-c3c(Cl)cc4c(N5CC6CNC(C6)C5)nc(OC[C@@]56CCCN5C[C@H](F)C6)nc4c3F)ccc(F)c2s1 (stereo partly drawn) [Compound 556, 4-(4-(3,6-diazabicyclo-[3.2.1]octan-3-yl)-6-chloro-8-fluoro-2-(((2R,7aS)-2-fluorotetrahydro-1H-pyrrol-izin-7a(5H)-yl)methoxy)-quinazolin-7-yl)-7-fluoro-benzo[d]thiazol-2-amine]	
> 500	> 500	Fc1c(N2CCCc3ccccc32)ccc2c(N3CCCCCC3)nc(OCC34CCCN3CCC4)nc12 [Compound 580, 4-(azepan-1-yl)-7-(3,4-dihydroquinolin-1(2H)-yl)-8-fluoro-2-((tetrahydro-1H-pyrrolizin-7a(5H)-yl)meth-oxy)quinazoline]	
		CN1CCC[C@H]1COc1nc(N2CCNCC(O)C2)c2cc(Cl)c(-c3cccc4sc(N)nc34)c(F)c2n1 (stereo partly drawn) [Compound 103, 1-(7-(2-aminobenzo[d]-thiazol-4-yl)-6-chloro-8-fluoro-2-(((S)-1-methyl-pyrrolidin-2-yl)methoxy)-quinazolin-4-yl)-1,4-diazepan-6-ol]	IC50 [1, 2]: < 500 nM; IC50 (wildtype Kras / hSOS1; [2]): < 500 nM
> 500	> 500	Oc1cc(CN2CCc3nc(OCC45CCCN4CCC5)nc(N4CC5CCC(C4)N5)c3CC2)c2ccccc2c1 [Compound 658, 4-((4-(3,8-diazabicyclo-[3.2.1]-octan-3-yl)-2-((tetrahydro-1H-pyrrolizin-7a(5H)-yl)methoxy)-5,6,8,9-tetrahydro-7H-pyrimido-[4,5-d]azepin-7-yl)methyl)-naphthalen-2-ol]	
< 500	> 500	N#Cc1csc2cccc(-c3c(Cl)cc4c(N5CC6CCC(C5)N6)nc(OC[C@@]56CCCN5C[C@H](F)C6)nc4c3F)c12 [Compound 674, 4-(4-(3,8-diazabicyclo-[3.2.1]-octan-3-yl)-6-chloro-8-fluoro-2-(((2R,7aS)-2-fluorotetrahydro-1H-pyrrol-izin-7a(5H)-yl)methoxy)-quinazolin-7-yl)benzo[b]-thiophene-3-carbonitrile]	
> 500	> 500	CN(C)C1CN(c2nc(N3CC4CCC(C3)N4)c3cc(CCC#N)c(-c4ccc(F)c5sc(N)nc45)c(F)c3n2)C1 [Compound 516, 3-(7-(2-amino-7-fluoroben-zo[d]thiazol-4-yl)-4-(3,8-diazabicyclo[3.2.1]octan-3-yl)-2-(3-(dimethylamino)-azetidin-1-yl)-8-fluoroquin-azolin-6-yl)propanenitrile]	
< 500	> 500	CN1CCC[C@H]1COc1nc(N2CCCC(C(=O)O)CC2)c2cc(Cl)c(-c3cccc4sc(N)nc34)c(F)c2n1 (stereo partly drawn) [Compound 535, 1-(7-(2-aminobenzo[d]thia-zol-4-yl)-6-chloro-8-fluoro-2-(((S)-1-methylpyrrolidin-2-yl)methoxy)quinazolin-4-yl)azepane-4-carboxylic acid]	
		Oc1cc(-c2ccc3c(N4CC5CCC(C4)N5)nc(OC[C@@]45CCCN4C[C@H](F)C5)nc3c2F)c2ccccc2c1 [Compound 209, 4-(4-((1R,5S)-3,8-diaza-bicyclo[3.2.1]octan-3-yl)-8-fluoro-2-(((2R,7aS)-2-fluoro-tetrahydro-1H-pyrrolizin-7a(5H)-yl)methoxy)quin-azolin-7-yl)naphthalen-2-ol]	IC50 [1, 3]: < 1500 nM; IC50 (wildtype Kras / hSOS1; [3]): < 1500 nM
		Cc1ccc2cnn(C)c2c1-c1c(Cl)cc2c(N3CCNCC(F)(F)C3)nc(OC[C@@]34CCCN3C[C@H](F)C4)nc2c1F [Compound 175, 6-chloro-4-(6,6-difluoro-1,4-diazepan-1-yl)-7-(1,6-dimethyl-1H-indazol-7-yl)-8-fluoro-2-(((2R,7aS)-2-fluorotetrahydro-1H-pyrrolizin-7a(5H)-yl)meth-oxy)quinazoline]	IC50 [1, 2]: < 500 nM; IC50 (wildtype Kras / hSOS1; [2]): < 500 nM
> 500	> 500	Fc1c(-c2cccc3c2CCCS3)c(Cl)cc2c(N3CC4CCC(C3)N4)nc(OC[C@@]34CCCN3C[C@H](F)C4)nc12 [Compound 637, 4-(3,8-diazabicyclo[3.2.1]-octan-3-yl)-6-chloro-8-fluoro-2-(((2R,7aS)-2-fluoro-tetrahydro-1H-pyrrolizin-7a(5H)-yl)methoxy)-7-(thio-chroman-5-yl)quinazoline]	
		CN1CCC[C@H]1COc1nc(N2[C@@H]3CC[C@H]2CNC3)c2cc(Cl)c(-c3cccc4sc(N)nc34)c(F)c2n1 [Compound 306, 4-(4-((1R,5S)-3,8-diaza-bicyclo[3.2.1]octan-8-yl)-6-chloro-8-fluoro-2-(((S)-1-methylpyrrolidin-2-yl)meth-oxy)quinazolin-7-yl)benzo-[d]thiazol-2-amine]	IC50 ([1]; compound nos. 301-306): < 1500 nM; IC50 (wildtype Kras / hSOS1; compound nos. 301-306): < 1500 nM
> 500	> 500	COc1nc2c(N3CC4CCC(C3)N4)nc(OCC34CCCN3CCC4)nc2cc1-c1cccc2cccc(Cl)c12 [Compound 544, 4-(3,8-diazabicyclo[3.2.1]-octan-3-yl)-7-(8-chloronaph-thalen-1-yl)-6-methoxy-2-((tetrahydro-1H-pyrrolizin-7a(5H)-yl)methoxy)pyrido-[3,2-d]pyrimidine]	
< 500	> 500	N#Cc1c(N)sc2c(F)ccc(-c3c(Cl)cc4c(N5CCCC6(CCNC6)C5)nc(OC[C@@]56CCCN5C[C@H](F)C6)nc4c3F)c12 (stereo partly drawn) [Compound 592, 2-amino-4-(6-chloro-8-fluoro-2-(((2R,7aS)-2-fluorotetrahydro-1H-pyrrol-izin-7a(5H)-yl)methoxy)-4-(2,7-diazaspiro[4.5]decan-7-yl)quinazolin-7-yl)-7-fluorobenzo[b]thiophene-3-carbonitrile]	
		Nc1nc2c(-c3c(Cl)cc4c(N5CCNCC(F)(F)C5)nc(OCC56CCCN5CCC6)nc4c3F)cccc2s1 [Compound 105, 4-(6-chloro-4-(6,6-difluoro-1,4-diazepan-1-yl)-8-fluoro-2-((tetrahydro-1H-pyrrol-izin-7a(5H)-yl)methoxy)-quinazolin-7-yl)benzo[d]-thiazol-2-amine]	IC50 [1, 2]: < 500 nM; IC50 (wildtype Kras / hSOS1; [2]): < 500 nM
